Paper PMC8657855 (International Journal of Molecular Sciences, 2021)
In brackets after ≈: the same amount, converted by molar mass.

Tests used:
Assay in all cases: microbe, parasite or virus in culture
[1] = tested on: Xanthomonas oryzae pv. oryzae Xoo; conditions: for inhibition at 10 µg/mL: read-out: Inhibition (%) 10 (mg/L); for inhibition at 50 µg/mL: read-out: Inhibition (%) 50 (mg/L)
[2] = tested on: Xanthomonas oryzae pv. oryzicola Xoc; conditions: read-out: EC50 (mg/L) Xoc
[3] = tested on: Xanthomonas oryzae pv. oryzae Xoo; conditions: read-out: EC50 (mg/L) Xoo
[4] = tested on: Xanthomonas oryzae pv. oryzicola Xoc; conditions: for inhibition at 10 µg/mL: read-out: Inhibition (%) 10 (mg/L); for inhibition at 50 µg/mL: read-out: Inhibition (%) 50 (mg/L)

Row | Compound | inhibition at 10 µg/mL [1] | inhibition at 50 µg/mL [1] | EC50 [2] | EC50 [3] | inhibition at 10 µg/mL [4] | inhibition at 50 µg/mL [4]
1 | CS(=O)(=O)c1nnc(CNC(=O)C=Cc2ccc(F)cc2)o1 [compound 10, 3-(4-fluorophenyl)-N-((5-(methylsulfonyl)-1,3,4-oxadiazol-2-yl)methyl)acrylamide] | 99 ± 0.3% | 99.5 ± 0.1% | 0.53 ± 0.01 mg/L (≈ 1.63 µM) | 0.36 ± 0.03 mg/L (≈ 1.11 µM) | 99 ± 0.8% | 95.6 ± 1%
2 | CCS(=O)(=O)c1nnc(CNC(=O)c2ccc(Cl)cc2)o1 [compound 25, 4-chloro-N-((5-(ethylsulfonyl)-1,3,4-oxadiazol-2-yl)methyl)benzamide] |  | 99.2 ± 0.3% | 0.94 ± 0.09 mg/L (≈ 2.85 µM) | 0.82 ± 0.05 mg/L (≈ 2.49 µM) | 99.6 ± 0.3% | 98.8 ± 1%
3 | CS(=O)(=O)c1nnc(CNC(=O)c2ccc(Cl)cc2)o1 [compound 24, 4-chloro-N-((5-(methylsulfonyl)-1,3,4-oxadiazol-2-yl)methyl)benzamide] | 99.9 ± 0.1% | 99.6 ± 0.2% | 0.9 ± 0.04 mg/L (≈ 2.85 µM) | 0.4 ± 0.03 mg/L (≈ 1.27 µM) | 96.9 ± 0.4% | 97.8 ± 2.7%
4 | CS(=O)(=O)c1nnc(CNC(=O)c2ccc(C(F)(F)F)cc2)o1 [compound 22, N-((5-(methylsulfonyl)-1,3,4-oxadiazol-2-yl)methyl)-4-(trifluoromethyl)benz amide] | 99.7 ± 0.2% | 99.9 ± 0.1% | 1.7 ± 0.09 mg/L (≈ 4.87 µM) | 0.72 ± 0.05 mg/L (≈ 2.06 µM) | 90.3 ± 5.5% | 99.3 ± 0.3%
5 | S=c1[nH]nc(NCNc2n[nH]c(=S)s2)s1 [BT, Bismerthiazol] | 2.5 ± 1.6% | 27.4 ± 5% | 105.9 ± 0.56 mg/L (≈ 380 µM) | 83.1 ± 8.07 mg/L (≈ 298 µM) | 7 ± 1.7% | 27 ± 1.7%
6 | CS(=O)(=O)c1nnc(CNC(=O)c2ccc(F)cc2F)o1 [compound 23, 2,4-difluoro-N-((5-(methylsulfonyl)-1,3,4-oxadiazol-2-yl)methyl)benzamide] | 95.7 ± 1.9% | 95.4 ± 0.4% | 7.41 ± 1.3 mg/L (≈ 23.4 µM) | 0.8 ± 0.09 mg/L (≈ 2.52 µM) | 69.6 ± 1.8% | 99.5 ± 0.4%
7 | CCS(=O)(=O)c1nnc(CNC(=O)C=Cc2ccc(Cl)cc2)o1 [compound 15, 3-(4-chlorophenyl)-N-((5-(ethylsulfonyl)-1,3,4-oxadiazol-2-yl)methyl)acrylamide] | 98.1 ± 0.6% | 98.3 ± 0.2% | 1.45 ± 0.05 mg/L (≈ 4.08 µM) | 0.43 ± 0.04 mg/L (≈ 1.21 µM) | 97.9 ± 0.4% | 98.9 ± 0.3%
8 | CCS(=O)(=O)c1nnc(CNC(=O)C=Cc2ccc(C)cc2)o1 [compound 13, N-((5-(ethylsulfonyl)-1,3,4-oxadiazol-2-yl)methyl)-3-(p-tolyl)acrylamide] | 99.5 ± 0.1% | 99.2 ± 0.2% | 0.88 ± 0.03 mg/L (≈ 2.62 µM) | 0.72 ± 0.07 mg/L (≈ 2.15 µM) | 98.1 ± 0.6% | 95.8 ± 1.2%
9 | CS(=O)(=O)c1nnc(CNC(=O)C=Cc2ccc(Cl)cc2)o1 [compound 14, 3-(4-chlorophenyl)-N-((5-(methylsulfonyl)-1,3,4-oxadiazol-2-yl)methyl)acrylamide] | 97.6 ± 0.8% |  | 0.61 ± 0.03 mg/L (≈ 1.78 µM) | 0.43 ± 0.06 mg/L (≈ 1.26 µM) | 98.8 ± 0.7% | 98.2 ± 1.1%
10 | CCS(=O)(=O)c1nnc(CNC(=O)C=Cc2ccc(F)cc2)o1 [compound 11, N-((5-(ethylsulfonyl)-1,3,4-oxadiazol-2-yl)methyl)-3-(4-fluorophenyl)acrylamide] | 98.8 ± 0.1% | 99.2 ± 0.4% | 10.8 ± 2.91 mg/L (≈ 31.7 µM) | 0.72 ± 0.05 mg/L (≈ 2.12 µM) | 50.6 ± 2.1% | 99 ± 1.3%
11 | CCS(=O)(=O)c1nnc(CNC(=O)C=Cc2ccccc2)o1 [compound 9, N-((5-(ethylsulfonyl)-1,3,4-oxadiazol-2-yl)methyl)cinnamamide] | 100% | 97.6 ± 1.4% | 0.78 ± 0.01 mg/L (≈ 2.43 µM) | 0.89 ± 0.12 mg/L (≈ 2.77 µM) | 97.1 ± 1.6% | 98 ± 1.7%
12 | CCS(=O)(=O)c1nnc(CNC(=O)C=Cc2cccs2)o1 [compound 2, N-((5-(ethylsulfonyl)-1,3,4-oxadiazol-2-yl)methyl)-3-(thiophen-2-yl)acrylamide] | 85 ± 4.1% | 90.6 ± 8.6% | 3.41 ± 0.05 mg/L (≈ 10.4 µM) | 0.72 ± 0.07 mg/L (≈ 2.2 µM) | 96.9 ± 0.3% | 97.5 ± 0.8%
13 | CCS(=O)(=O)c1nnc(CNC(=O)c2ccc(Cl)s2)o1 [compound 4, 5-chloro-N-((5-(ethylsulfonyl)-1,3,4-oxadiazol-2-yl)methyl)thiophene-2-carb oxamide] | 98.3 ± 1% | 97.9 ± 1.5% | 0.83 ± 0.01 mg/L (≈ 2.47 µM) | 0.45 ± 0.04 mg/L (≈ 1.34 µM) | 96.9 ± 1.1% | 99 ± 0.2%
14 | CS(=O)(=O)c1nnc(CNC(=O)C=Cc2cccs2)o1 [compound 1, N-((5-(methylsulfonyl)-1,3,4-oxadiazol-2-yl)methyl)-3-(thiophen-2-yl)acrylamide] | 96.2 ± 1.5% | 97.6 ± 1.2% | 0.86 ± 0.08 mg/L (≈ 2.74 µM) | 0.68 ± 0.07 mg/L (≈ 2.17 µM) | 97.3 ± 1.8% | 98.3 ± 0.9%
15 | CS(=O)(=O)c1nnc(CNC(=O)c2ncc(C(F)(F)F)cc2Cl)o1 [compound 6, 3-chloro-N-((5-(methylsulfonyl)-1,3,4-oxadiazol-2-yl)methyl)-5-(trifluoromethyl)picolinamide] | 94.8 ± 1.8% | 99.7 ± 0.2% | 3.31 ± 0.09 mg/L (≈ 8.6 µM) | 3.49 ± 0.07 mg/L (≈ 9.07 µM) | 95.5 ± 0.8% | 99.3 ± 0.2%
16 | CCS(=O)(=O)c1nnc(CNC(=O)c2ccc(C)cc2C)o1 [compound 19, N-((5-(ethylsulfonyl)-1,3,4-oxadiazol-2-yl)methyl)-2,4-dimethylbenzamide] | 97.2 ± 1.4% | 98.1 ± 0.8% | 1.69 ± 0.18 mg/L (≈ 5.23 µM) | 1.08 ± 0.11 mg/L (≈ 3.34 µM) | 98.2 ± 1% | 95.8 ± 0.8%
17 | CS(=O)(=O)c1nnc(CNC(=O)c2ccc(Cl)s2)o1 [compound 3, 5-chloro-N-((5-(methylsulfonyl)-1,3,4-oxadiazol-2-yl)methyl)thiophene-2-car boxamide] | 98.6 ± 0.8% | 95.8 ± 2.6% | 1.06 ± 0.04 mg/L (≈ 3.29 µM) | 0.53 ± 0.07 mg/L (≈ 1.65 µM) | 98 ± 0.2% | 98.3 ± 1.3%
18 | CS(=O)(=O)c1nnc(CNC(=O)c2ccc(F)cc2)o1 [compound 26, 4-fluoro-N-((5-(methylsulfonyl)-1,3,4-oxadiazol-2-yl)methyl)benzamide] | 99.4 ± 0.2% | 99.1 ± 0.1% | 2.3 ± 0.06 mg/L (≈ 7.69 µM) | 0.61 ± 0.03 mg/L (≈ 2.04 µM) | 98.3 ± 1.6% | 99 ± 1%
19 | CS(=O)(=O)c1nnc(CNC(=O)c2ccc(Br)o2)o1 [compound 5, 5-bromo-N-((5-(methylsulfonyl)-1,3,4-oxadiazol-2-yl)methyl)furan-2-carbox amide] | 96.3 ± 2.5% | 96.6 ± 0.4% | 2.59 ± 0.05 mg/L (≈ 7.4 µM) | 0.48 ± 0.01 mg/L (≈ 1.37 µM) | 99.3 ± 0.1% | 97.8 ± 2%
20 | CC(=CC(=O)NCc1nnc(S(C)(=O)=O)o1)c1ccccc1 [compound 17, N-((5-(methylsulfonyl)-1,3,4-oxadiazol-2-yl)methyl)-3-phenylbut-2-enamide] | 99.4 ± 0.5% | 99.7 ± 0.4% | 5.21 ± 0.11 mg/L (≈ 16.2 µM) | 0.54 ± 0.04 mg/L (≈ 1.68 µM) | 67.7 ± 0.9% | 94.7 ± 0.9%
21 | CCS(=O)(=O)c1nnc(CNC(=O)c2ncc(C(F)(F)F)cc2Cl)o1 [compound 7, 3-chloro-N-((5-(ethylsulfonyl)-1,3,4-oxadiazol-2-yl)methyl)-5-(trifluoromethyl)picolinamide] | 48.1 ± 0.8% | 99.8 ± 0.1% | 7.58 ± 0.27 mg/L (≈ 19 µM) | 7.45 ± 0.16 mg/L (≈ 18.7 µM) | 40.1 ± 1.3% | 99.6 ± 0.2%
22 | Cc1ccc(C(=O)NCc2nnc(S(C)(=O)=O)o2)cc1 [compound 20, 4-methyl-N-((5-(methylsulfonyl)-1,3,4-oxadiazol-2-yl)methyl)benzamide] | 99.4 ± 0.3% | 99.6 ± 0.3% | 1.66 ± 0.21 mg/L (≈ 5.62 µM) | 0.63 ± 0.06 mg/L (≈ 2.13 µM) | 67.8 ± 6.8% | 99 ± 0.9%
23 | CS(=O)(=O)c1nnc(CNC(=O)C=Cc2ccccc2)o1 [compound 8, N-((5-(methylsulfonyl)-1,3,4-oxadiazol-2-yl)methyl)cinnamamide] | 99.7 ± 0.3% | 98.9 ± 0.5% | 0.7 ± 0.01 mg/L (≈ 2.28 µM) | 0.73 ± 0.08 mg/L (≈ 2.38 µM) | 98.8 ± 0.7% | 92.3 ± 7.3%
24 | Cc1ccc(C(=O)NCc2nnc(S(C)(=O)=O)o2)c(C)c1 [compound 18, 2,4-dimethyl-N-((5-(methylsulfonyl)-1,3,4-oxadiazol-2-yl)methyl)benzamide] | 98.8 ± 0.2% | 98.2 ± 1.4% | 1.74 ± 0.11 mg/L (≈ 5.62 µM) | 0.69 ± 0.04 mg/L (≈ 2.23 µM) | 98.9 ± 1% | 96.9 ± 0.2%
25 | CS(=O)(=O)c1nnc(CNC(=O)C=Cc2ccc(Cl)cc2Cl)o1 [compound 16, 3-(2,4-dichlorophenyl)-N-((5-(methylsulfonyl)-1,3,4-oxadiazol-2-yl)methyl)a crylamide] | 98.9 ± 0.3% | 99 ± 0.4% | 1.15 ± 0.05 mg/L (≈ 3.06 µM) | 0.42 ± 0.05 mg/L (≈ 1.12 µM) | 99.2 ± 0.7% | 97.7 ± 0.7%
26 | Cc1ccc(C=CC(=O)NCc2nnc(S(C)(=O)=O)o2)cc1 [compound 12, N-((5-(methylsulfonyl)-1,3,4-oxadiazol-2-yl)methyl)-3-(p-tolyl)acrylamide] | 99.5 ± 0.1% | 99.8 ± 0.2% | 0.64 ± 0.05 mg/L (≈ 1.99 µM) | 0.52 ± 0.04 mg/L (≈ 1.62 µM) | 96.9 ± 2.3% | 95.6 ± 2.1%
